According to PubChem BioAssay (NCI):
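Cultured in 96-well plates, cells were exposed to test compound for 48 hours across five concentrations. At the GI50, growth is halved. Definition used: TGI = concentration required for complete inhibition of growth.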

Experiments:
Experiment in all cases: NCI tumour cell line growth inhibition, 48 h; in the data active = GI50 below about 0.43 µM; inactive = the rest
LOX IMVI melanoma = test system: LOX IMVI melanoma
ACHN renal = test system: ACHN renal
UO-31 renal = test system: UO-31 renal
SK-MEL-5 melanoma = test system: SK-MEL-5 melanoma
SF-295 CNS = test system: SF-295 CNS
A498 renal = test system: A498 renal
SK-MEL-2 melanoma = test system: SK-MEL-2 melanoma
K-562 leukemia = test system: K-562 leukemia
EKVX NSCLC = test system: EKVX NSCLC
HL-60(TB) leukemia = test system: HL-60(TB) leukemia
MDA-MB-435 = test system: MDA-MB-435
MCF7 breast = test system: MCF7 breast
MALME-3M melanoma = test system: MALME-3M melanoma
OVCAR-8 ovarian = test system: OVCAR-8 ovarian
SW-620 colon = test system: SW-620 colon
U251 CNS = test system: U251 CNS
CCRF-CEM leukemia = test system: CCRF-CEM leukemia
SF-539 CNS = test system: SF-539 CNS
HOP-62 NSCLC = test system: HOP-62 NSCLC
KM12 colon = test system: KM12 colon
OVCAR-5 ovarian = test system: OVCAR-5 ovarian
SK-OV-3 ovarian = test system: SK-OV-3 ovarian
HCT-15 colon = test system: HCT-15 colon
UACC-62 melanoma = test system: UACC-62 melanoma
NCI-H23 lung = test system: NCI-H23 lung
DU-145 prostate = test system: DU-145 prostate
MDA-MB-231 breast = test system: MDA-MB-231 breast
NCI-H226 lung = test system: NCI-H226 lung
UACC-257 melanoma = test system: UACC-257 melanoma
SNB-75 CNS = test system: SNB-75 CNS
RXF 393 renal = test system: RXF 393 renal
TK-10 renal = test system: TK-10 renal
NCI-H460 lung = test system: NCI-H460 lung
OVCAR-4 ovarian = test system: OVCAR-4 ovarian
NCI-H522 lung = test system: NCI-H522 lung
SR leukemia = test system: SR leukemia
NCI/ADR-RES ovarian = test system: NCI/ADR-RES ovarian
BT-549 breast = test system: BT-549 breast
CAKI-1 renal = test system: CAKI-1 renal
COLO 205 colon = test system: COLO 205 colon
HCC-2998 colon = test system: HCC-2998 colon
MOLT-4 leukemia = test system: MOLT-4 leukemia
IGROV1 ovarian = test system: IGROV1 ovarian
HOP-92 NSCLC = test system: HOP-92 NSCLC
RPMI-8226 leukemia = test system: RPMI-8226 leukemia
OVCAR-3 ovarian = test system: OVCAR-3 ovarian
SK-MEL-28 melanoma = test system: SK-MEL-28 melanoma
PC-3 prostate = test system: PC-3 prostate
A549 NSCLC = test system: A549 NSCLC
SNB-19 CNS = test system: SNB-19 CNS
HS 578T breast = test system: HS 578T breast
SN12C renal = test system: SN12C renal
HCT-116 colon = test system: HCT-116 colon
SF-268 CNS = test system: SF-268 CNS
T-47D breast = test system: T-47D breast
HT29 colon = test system: HT29 colon
786-0 renal = test system: 786-0 renal

OCCNc1nc(NCCO)nc(Nc2ccc(C3=NN(c4cc(Cl)cc(Cl)c4)C(c4ccc(C(F)(F)F)cc4)C3)cc2)n1 (centres undefined)
2.66 µM: TGI (ACHN renal)
2.97 µM: TGI (LOX IMVI melanoma)
inactive: GI50 (LOX IMVI melanoma) 1.56 µM | GI50 (ACHN renal) 1.37 µM | GI50 (UO-31 renal) 1.55 µM | GI50 (SK-MEL-5 melanoma) 1.72 µM | GI50 (SF-295 CNS) 1.36 µM
3.11 µM: TGI (SK-MEL-5 melanoma)
2.71 µM: TGI (SF-295 CNS)
2.92 µM: TGI (UO-31 renal)

C=CCN1C(=O)/C(=C/c2ccccc2)N=C1SC1OC(COC(=O)c2ccccc2)C(OC(=O)c2ccccc2)C1OC(=O)c1ccccc1 (centres undefined)
> 100 µM: TGI (A498 renal) | TGI (SK-MEL-2 melanoma) | TGI (K-562 leukemia) | TGI (EKVX NSCLC) | TGI (HL-60(TB) leukemia) | TGI (MDA-MB-435) | TGI (MCF7 breast) | TGI (MALME-3M melanoma) | TGI (OVCAR-8 ovarian) | TGI (SW-620 colon) | TGI (U251 CNS) | TGI (SF-539 CNS) | TGI (HOP-62 NSCLC) | TGI (KM12 colon) | TGI (OVCAR-5 ovarian) | TGI (LOX IMVI melanoma) | TGI (SK-OV-3 ovarian) | TGI (HCT-15 colon) | TGI (ACHN renal) | TGI (UACC-62 melanoma) | TGI (NCI-H23 lung) | TGI (DU-145 prostate) | TGI (MDA-MB-231 breast) | TGI (NCI-H226 lung) | TGI (UACC-257 melanoma) | TGI (SNB-75 CNS) | TGI (RXF 393 renal) | TGI (TK-10 renal) | TGI (NCI-H460 lung) | TGI (OVCAR-4 ovarian) | TGI (SR leukemia) | TGI (NCI/ADR-RES ovarian) | TGI (BT-549 breast) | TGI (CAKI-1 renal) | TGI (COLO 205 colon) | TGI (HCC-2998 colon) | TGI (MOLT-4 leukemia) | TGI (SK-MEL-5 melanoma) | TGI (IGROV1 ovarian) | TGI (HOP-92 NSCLC) | TGI (OVCAR-3 ovarian) | TGI (SF-295 CNS) | TGI (SK-MEL-28 melanoma) | TGI (PC-3 prostate)
87.9 µM: TGI (RPMI-8226 leukemia)
70.4 µM: TGI (CCRF-CEM leukemia)
41.5 µM: TGI (NCI-H522 lung)

C=C(CN1CCc2ccccc2C1)c1ccc(C(=O)Nc2cnccn2)cc1
83.3 µM: TGI (SF-539 CNS)
14.7 µM: TGI (K-562 leukemia)
inactive: GI50 (A498 renal) 33.4 µM | GI50 (SK-MEL-2 melanoma) 46.6 µM | GI50 (K-562 leukemia) 3.17 µM | GI50 (EKVX NSCLC) 52.8 µM | GI50 (HL-60(TB) leukemia) 3.55 µM | GI50 (MCF7 breast) > 100 µM | GI50 (A549 NSCLC) 31 µM | GI50 (OVCAR-8 ovarian) 30.2 µM | GI50 (SNB-19 CNS) 51.1 µM | GI50 (SW-620 colon) 42.3 µM | GI50 (U251 CNS) 16.2 µM | GI50 (CCRF-CEM leukemia) 5.42 µM | GI50 (SF-539 CNS) 7.59 µM | GI50 (HS 578T breast) 57.1 µM | GI50 (HOP-62 NSCLC) 27.1 µM | GI50 (SN12C renal) 50.4 µM | GI50 (KM12 colon) 12.5 µM | GI50 (OVCAR-5 ovarian) > 100 µM | GI50 (HCT-116 colon) 16.6 µM | GI50 (LOX IMVI melanoma) 9.18 µM | GI50 (SK-OV-3 ovarian) 24.3 µM | GI50 (HCT-15 colon) 28.8 µM | GI50 (ACHN renal) 30.8 µM | GI50 (UACC-62 melanoma) 44 µM | GI50 (NCI-H23 lung) 18.4 µM | GI50 (DU-145 prostate) 30.1 µM | GI50 (MDA-MB-231 breast) 27.3 µM | GI50 (NCI-H226 lung) > 100 µM | GI50 (SF-268 CNS) 60.4 µM | GI50 (UO-31 renal) 24.4 µM | GI50 (UACC-257 melanoma) 83.6 µM | GI50 (T-47D breast) > 100 µM | GI50 (SNB-75 CNS) 16.7 µM | GI50 (RXF 393 renal) 39 µM | GI50 (TK-10 renal) 86.3 µM | GI50 (NCI-H460 lung) 36.3 µM | GI50 (OVCAR-4 ovarian) 99.4 µM | GI50 (NCI-H522 lung) 18.2 µM | GI50 (NCI/ADR-RES ovarian) 4.95 µM | GI50 (CAKI-1 renal) 7.77 µM | GI50 (COLO 205 colon) 17.5 µM | GI50 (HCC-2998 colon) 36.1 µM | GI50 (HT29 colon) 24.1 µM | GI50 (MOLT-4 leukemia) 5.82 µM | GI50 (SK-MEL-5 melanoma) 20.8 µM | GI50 (RPMI-8226 leukemia) 3.35 µM | GI50 (OVCAR-3 ovarian) 22.1 µM | GI50 (SF-295 CNS) 19.1 µM | GI50 (SK-MEL-28 melanoma) 25.4 µM | GI50 (PC-3 prostate) 1.86 µM | GI50 (786-0 renal) 25.4 µM
> 100 µM: TGI (A498 renal) | TGI (SK-MEL-2 melanoma) | TGI (EKVX NSCLC) | TGI (MCF7 breast) | TGI (A549 NSCLC) | TGI (OVCAR-8 ovarian) | TGI (SNB-19 CNS) | TGI (SW-620 colon) | TGI (U251 CNS) | TGI (CCRF-CEM leukemia) | TGI (HS 578T breast) | TGI (HOP-62 NSCLC) | TGI (SN12C renal) | TGI (OVCAR-5 ovarian) | TGI (LOX IMVI melanoma) | TGI (HCT-15 colon) | TGI (ACHN renal) | TGI (UACC-62 melanoma) | TGI (NCI-H23 lung) | TGI (MDA-MB-231 breast) | TGI (NCI-H226 lung) | TGI (SF-268 CNS) | TGI (UO-31 renal) | TGI (UACC-257 melanoma) | TGI (T-47D breast) | TGI (RXF 393 renal) | TGI (TK-10 renal) | TGI (NCI-H460 lung) | TGI (OVCAR-4 ovarian) | TGI (NCI/ADR-RES ovarian) | TGI (CAKI-1 renal) | TGI (HCC-2998 colon) | TGI (MOLT-4 leukemia) | TGI (SK-MEL-28 melanoma) | TGI (PC-3 prostate) | TGI (786-0 renal)
61.2 µM: TGI (SNB-75 CNS)
14 µM: TGI (HL-60(TB) leukemia)
61 µM: TGI (SK-MEL-5 melanoma)
89.7 µM: TGI (DU-145 prostate)
62.6 µM: TGI (OVCAR-3 ovarian)
10.3 µM: TGI (RPMI-8226 leukemia)
42.5 µM: TGI (NCI-H522 lung)
73 µM: TGI (SF-295 CNS)
84.5 µM: TGI (SK-OV-3 ovarian)
56.5 µM: TGI (KM12 colon)
68 µM: TGI (HCT-116 colon)
40.1 µM: TGI (COLO 205 colon)
59.5 µM: TGI (HT29 colon)
